± gives the expanded uncertainty stated by the source.
Settings: Liquid, Vibrating tube method

| Structure (SMILES) | mass density (313.15 K, 101.33 kPa) [kg/m3] | mass density (323.15 K, 101.33 kPa) [kg/m3] | mass density (333.15 K, 101.33 kPa) [kg/m3] | mass density (343.15 K, 101.33 kPa) [kg/m3] | mass density (352.15 K, 101.33 kPa) [kg/m3] | mass density (280.15 K, 100 kPa) [kg/m3] | mass density (280.15 K, 40000 kPa) [kg/m3] | mass density (293.15 K, 100 kPa) [kg/m3] | mass density (293.15 K, 40000 kPa) [kg/m3] | mass density (303.15 K, 100 kPa) [kg/m3] | mass density (303.15 K, 40000 kPa) [kg/m3] | mass density (313.15 K, 100 kPa) [kg/m3] | mass density (313.15 K, 40000 kPa) [kg/m3] | mass density (323.15 K, 100 kPa) [kg/m3] | mass density (323.15 K, 40000 kPa) [kg/m3] | mass density (333.15 K, 100 kPa) [kg/m3] | mass density (333.15 K, 40000 kPa) [kg/m3] | mass density (343.15 K, 100 kPa) [kg/m3] | mass density (352.15 K, 100 kPa) [kg/m3] |
| --- | --- | --- | --- | --- | --- | --- | --- | --- | --- | --- | --- | --- | --- | --- | --- | --- | --- | --- | --- |
| COC(=O)CCCCCCCCCCC(=O)OC [dimethyl dodecanoate] | 959.4 ± 3.9 | 951 ± 3.9 | 943.1 ± 3.9 | 934.4 ± 3.8 | 927 ± 3.8 | – | – | – | – | – | – | – | – | – | – | – | – | – | – |
| C=CCCCCCCCCC(=O)OC [methyl 10-undecenoate] | – | – | – | – | – | 897.46 ± 5.7 | 914.37 ± 5.8 | 886.83 ± 5.6 | 906.75 ± 5.8 | 878.63 ± 5.5 | 895.63 ± 5.7 | 870.71 ± 5.5 | 888.48 ± 5.7 | 862.33 ± 5.4 | 881.75 ± 5.6 | 854.49 ± 5.3 | 874.61 ± 5.6 | 845.8 ± 5.3 | 838.42 ± 5.2 |

Source: the NIST ThermoML archive (doi:10.1021/acs.jced.6b00360)
